Where “and” joins values, the source holds several entries; their conditions need not be identical. Identical values can stand only once. Like-named read-outs stand apart in the source and are kept apart here.
Columns and labels:
[1] = tested on: CYP3A4; set-up: method as in ref 17, 18 = [17]; 17. Tegoprazan (K-CAB) Available online: https://pdfslide.net/reader/f/tegoprazan-k-cab-2019-02-08-tegoprazan-metabolic-pathway-75-by-cyp3a4 (accessed on 10 December 2020) || [18]; PMID 34575565; doi:10.3390/pharmaceutics13091489; 18. Yoon D.Y. Lee S. Jang I.-J. Kim M. Lee H. Kim S. Kim B. Song G.S. Rhee S.-J. Prediction of Drug–Drug Interaction Potential of Tegoprazan Using Physiologically Based Pharmacokinetic Modeling and Si; settings: cited from earlier work
[2] = tested on: intragastric pH; set-up: method as in PMID 31437865; settings: Observed (n = 6), cited from earlier work
[3] = weak base; cited from earlier work
[4] = Physicochemical properties (solubility, pKa, LogP, BCS class); settings: from high permeability and low solubility
[5] = biological target: T1, CYP2C9 (Homo sapiens, UniProt P11712); test: Intrinsic clearance using recombinant CYPs: CYP2C9; assay type: in vitro ADME
T1 construct: purchased Corning Life Sciences (Woburn, MA, USA)
T1 sequence (P11712 whole entry): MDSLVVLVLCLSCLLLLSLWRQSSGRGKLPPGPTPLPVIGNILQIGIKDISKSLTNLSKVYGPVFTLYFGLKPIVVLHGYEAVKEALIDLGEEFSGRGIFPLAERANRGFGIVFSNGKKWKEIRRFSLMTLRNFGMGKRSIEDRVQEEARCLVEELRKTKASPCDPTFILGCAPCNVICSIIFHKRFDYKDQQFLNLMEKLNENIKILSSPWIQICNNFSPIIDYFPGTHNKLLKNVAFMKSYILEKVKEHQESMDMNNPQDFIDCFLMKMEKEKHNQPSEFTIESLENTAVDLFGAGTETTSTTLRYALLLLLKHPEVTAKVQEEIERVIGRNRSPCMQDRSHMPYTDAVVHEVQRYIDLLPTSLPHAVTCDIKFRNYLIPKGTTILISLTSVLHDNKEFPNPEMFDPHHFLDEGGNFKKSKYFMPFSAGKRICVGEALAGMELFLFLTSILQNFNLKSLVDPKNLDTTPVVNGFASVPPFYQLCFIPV
Experimental: The elimination profiles of tegoprazan and M1 were assessed using rCYPs. All the assay procedures were performed according to the manufacturer’s instructions. Master mix (1.399 mL), containing the NADPH-generating system, 3.3 mM of glucose 6-phosphate, PBS buffer, deionized water, and each rCYP (25 pmol/μL of CYP2C8, 2C19, and 2E1 and 50 pmol/μL of CYP3A4, 2C9, and 2D6), was added to a microtube and pre-incubated at 37 °C for 5 min. Next, 1 μM tegoprazan and M1 were added and incubated at 37 °C for 0, 5, 10, 20, 30, 45, and 60 min. A total of 100 μL of the sample, incubated for predefined duration, was transferred to a fresh e-tube. Next, 200 μL of acetonitrile containing tegoprazan-d6 (0.5 μM) was added, vortexed for 5 min, and centrifuged at 16,200× g and 4 °C for 10 min. The concentrations of the remaining tegoprazan and M1 were determined by LC–MS/MS. All experiments were performed in duplicate. CLint,rCYP levels were assessed using the results of the disappearance test. […] The CLint resulting from rCYPs was calculated using Equation (3):(3) CLint,rCYP(μL/min/pmol CYP)=0.693/t1/2×1400/concentration of CYP
Caco-2 and rCYP samples were quantified using LC-MS/MS (UPLC® I-class coupled with TQ-MS (Waters, Milford, MA, USA). The mobile phase comprised (a) 0.1% formic acid and (b) acetonitrile containing 0.1% formic acid. Gradient elution at a flow rate of 0.3 mL/min was applied. Tegoprazan, M1, and the internal standard (tegoprazan-d6) were optimized in electrospray ionization positive mode. Acetonitrile with 0.1 μM of tegoprazan-d6 was added to the collected Caco-2 or rCYP samples. Then, processed samples were centrifuged at 13,000× g for 20 min. After centrifugation, 100 μL of supernatant was transferred to an LC-MS vial and analyzed using LC-MS/MS. […] The stability of tegoprazan was evaluated, and it satisfied the acceptance criteria (coefficient of variances was within 15%) under variable conditions including reinjection, processed sample stability (PSS), and short-term stability for the stock and sample.

[6] = ADAM model prediction of regional absorption, gut metabolism, surface solubility and residence time; set-up: species or system human; settings: at 30 min after a high-fat meal
Experimental: (§1) The absorption of tegoprazan was applied to the advanced dissolution, absorption, and metabolism (ADAM) model, and the diffusion layer model (DLM) built into SimCYP® was applied to the considered formulation and pH-dependent solubility of tegoprazan. The permeability of tegoprazan was determined by a Caco-2 permeability assay and optimized by parameter estimation. Caco-2 permeability was optimized such that the predicted concentration–time profiles were fitted to clinical study data. The metabolite was generated by the metabolism of the parent drug; therefore, absorption was not considered.
Postprandial PK profiles were predicted using an established model. Concentration–time profiles were obtained following a single oral dose (50 mg) of tegoprazan in the fasting state or 30 min after a high-fat diet. The predicted AUClast, Cmax, and Tmax values were compared with those of a previous clinical study.

[7] = PBPK model input parameters predicted in SimCYP or obtained by parameter estimation; settings: human; initial model value; Vd of the clinical study applied; read-out: Vss
Text: The tegoprazan and M1 PBPK models were developed using SimCYP® simulator, version 20 (Certara, Princeton, NJ, USA). Compound libraries were incorporated into an in vitro dataset, including the microsomal clearance of tegoprazan and M1. Observed PK parameters were obtained from the aforementioned clinical studies (Table 1 and Table 2).
as §1
The tissue distribution in the PBPK model was predicted by the distribution model (e.g., Rodger and Rowland method, Poulin and Theil method) and the tissue:plasma partition coefficient (Kp) scalar for specific organ or global values. Predicted systemic distribution was expressed as the volume of distribution in a steady state (Vss). […]

[8] = biological target: T2, recombinant CYP2D6 (Homo sapiens, UniProt P10635); test: Intrinsic clearance using recombinant CYPs: CYP2D6; assay type: in vitro ADME; settings: 1 μM
T2 construct: purchased Corning Life Sciences (Woburn, MA, USA)
T2 sequence (P10635 whole entry): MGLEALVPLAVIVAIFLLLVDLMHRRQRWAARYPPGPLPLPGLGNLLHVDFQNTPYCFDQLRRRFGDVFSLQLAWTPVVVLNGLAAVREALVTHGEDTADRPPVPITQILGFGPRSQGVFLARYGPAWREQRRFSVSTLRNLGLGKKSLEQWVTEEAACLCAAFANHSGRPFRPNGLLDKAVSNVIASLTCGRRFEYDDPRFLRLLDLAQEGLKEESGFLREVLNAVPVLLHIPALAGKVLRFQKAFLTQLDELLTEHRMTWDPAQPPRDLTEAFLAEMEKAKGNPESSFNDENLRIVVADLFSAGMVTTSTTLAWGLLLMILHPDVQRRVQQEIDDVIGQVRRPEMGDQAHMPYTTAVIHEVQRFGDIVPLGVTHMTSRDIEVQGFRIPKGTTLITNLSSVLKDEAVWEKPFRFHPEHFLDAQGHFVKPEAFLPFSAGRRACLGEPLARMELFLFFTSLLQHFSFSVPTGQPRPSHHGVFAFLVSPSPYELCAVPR
Experimental: The elimination profiles of tegoprazan and M1 were assessed using rCYPs. All the assay procedures were performed according to the manufacturer’s instructions. Master mix (1.399 mL), containing the NADPH-generating system, 3.3 mM of glucose 6-phosphate, PBS buffer, deionized water, and each rCYP (25 pmol/μL of CYP2C8, 2C19, and 2E1 and 50 pmol/μL of CYP3A4, 2C9, and 2D6), was added to a microtube and pre-incubated at 37 °C for 5 min. Next, 1 μM tegoprazan and M1 were added and incubated at 37 °C for 0, 5, 10, 20, 30, 45, and 60 min. A total of 100 μL of the sample, incubated for predefined duration, was transferred to a fresh e-tube. Next, 200 μL of acetonitrile containing tegoprazan-d6 (0.5 μM) was added, vortexed for 5 min, and centrifuged at 16,200× g and 4 °C for 10 min. The concentrations of the remaining tegoprazan and M1 were determined by LC–MS/MS. All experiments were performed in duplicate. CLint,rCYP levels were assessed using the results of the disappearance test. The terminal slope of the linear regression was used to determine the CLint for tegoprazan. The CLint resulting from rCYPs was calculated using Equation (3):(3) CLint,rCYP(μL/min/pmol CYP)=0.693/t1/2×1400/concentration of CYP […]

[9] = set-up: method as in PMID 33131095; settings: 100 mg repeatedly; 10 healthy Chinese subjects; cited from earlier work

- biopharmaceutics classification system (BCS) class [4]: class II
- CLint, CYP2C9 ([5]; 1 μM, experimental data): 0.14 µL/min/pmol and 0.140 µL/min/pmol
- half-life at 1 μM ([5]; human, recombinant CYP2C9, rCYP2C9): 2.27 h
- Slope (disappearance) ([5]; rCYP2C9, 1 μM): -0.005
- increase of predicted absorbed fraction in the duodenum, fed vs fasting [6]: approximately 72.7%
- increase of predicted mean residence time in the stomach, fed vs fasting [6]: approximately 170.4%
- increase of predicted surface solubility in the duodenum, fed vs fasted [6]: 40.3%
- increase of predicted surface solubility in the stomach, fed vs fasted [6]: 14.8%
- Vd [7]: 1.55 L/kg
- CLint, CYP2D6 ([8]; experimental data): 0.02 µL/min/pmol and 0.020 µL/min/pmol
- Slope (disappearance) ([8]; rCYP2D6): < 0.001
SMILES: Cc1nc2cc(C(=O)N(C)C)cc(O[C@H]3CCOc4cc(F)cc(F)c43)c2[nH]1 [tegoprazan]
- metabolic fraction by CYP3A4 of total hepatic clearance [1]: approximately 75%
- pH ≥ 4 over 24 h ([2]; 50 mg Single): 48.9%
- pH ≥ 4 over 24 h ([2]; 100 mg q.d. for 7 Days, Day 1): 62.3%
- pH ≥ 4 over 24 h ([2]; 100 mg q.d. for 7 Days, Day 7): 70.4%
- pKa [3]: 5.1
- AUC and CL on Day 7 compared with Day 1 [9]: did not show a significant difference
- Vd/F on Day 7 compared with Day 1 [9]: increased significantly

— article PMC9230797, “Integration of a Physiologically Based Pharmacokinetic and Pharmacodynamic Model for Tegoprazan and Its Metabolite: Application for Predicting Food Effect and Intragastric pH Alterations” (Pharmaceutics, 2022)
